Measured values from article PMC5011342, “A high throughput drug screening assay to identify compounds that promote oligodendrocyte differentiation using acutely dissociated and purified oligodendrocyte precursor cells” (BMC Research Notes, 2016).
Where two headings read alike, the source gives them in different places.

Tests used:
[1] = tested on: acutely dissociated and purified rat OPCs; test: Acute OL differentiation assay (MBP expression/cell, immunofluorescent image quantification); type: cell-based; conditions: sheet "All OLga data"; for activation at 0.4 µM / activation at 2 µM / activation at 10 µM: Rattus norvegicus
Protocol: In order to identify compounds with the potential to promote OL differentiation in vivo and thereby enhance remyelination, we first wanted to establish an in vitro assay system that would closely mimic conditions in vivo. To do this, we started by using OPCs acutely isolated from postnatal day 6–7 (P6–7) rat brains by O4 immunopanning. […] OPCs were plated directly onto a biological substrate (PDL/laminin) in 96-well view plates at moderate density to allow for sufficient room to expand processes during differentiation. We plated cells in serum-free medium lacking OPC mitogens (no PDGF or FGF) to allow a basal level of OL differentiation to commence, and as a positive control added thyroid hormone (T3, 40 ng/ml) to accelerate differentiation (Fig. 1, flow scheme).
Fig. 1 Flow scheme of the acute OL differentiation assay. a Purified oligodendrocyte precursor cells (OPCs) were cultured from P7 rat cortex and plated into PDL/laminin pre-coated 96-well plates. b One hour later test compounds were added. c OPC cultures with compound were maintained in culture for an additional 4 days. d On the 5th day with compound, cells were fixed and immunostained with anti-MBP antibodies and DAPI. e Images were acquired with automated fluorescence microscopy and scored phenotypically for OL differentiation (see “Methods” section)
To quantify the extent of OL differentiation occurring in treatment conditions, we measured the overall amount of MBP expression/cell (see “Methods” section). Figure 2a depicts the mask created over MBP staining under which the MBP expression was quantified. […]
All animal work was carried out in strict accordance with the recommendations in the Guide for the Care and Use of Laboratory Animals of the National Institutes of Health. The protocol was approved by the Institutional Use and Care and Use Committee at the Molecular Medicine Research Institute (Sunnyvale, CA). Animals used for OPC isolation in these studies were euthanized by decapitation. OPCs from brains of P6-P7 Sprague–Dawley rat pups (Charles River, Wilmington, MA, USA) were enriched by immunopanning as previously described (Dugas et al. 2006). Briefly, single cell suspensions were obtained from papain-digested neonatal brains and depleted of mature glial cells by successive panning with RAN-2- and GalC-coated plates, followed by enrichment for OPCs using O4-coated plates. OPCs were plated in differentiation media (DMEM, 100 U/ml Penicillin/100 µg/ml streptomycin, 2 mM L-glutamine, 1 mM Na pyruvate, 5 µg/ml insulin, 5 µg/ml N-acetyl-L-cysteine, 1× trace elements B,10 ng/ml d-Biotin, 100 µg/ml BSA, 100 µg/ml apo-transferrin, 16 µg/ml putrescine, 60 ng/ml progesterone, 40 ng/ml sodium selenite 5 ng/ml forskolin, 10 ng/ml CNTF, 1 ng/ml NT-3).
Acutely enriched OPCs were plated in differentiation media at 5000 cells/well into PDL/laminin coated 96-well view plates and centrifuged at 200×g to facilitate cell attachment, survival, and even distribution of OPCs. OPCs were pre-incubated for 1–2 h at 37 °C in 10 % CO2, followed by the addition of test compounds in quadruplicate. Controls were added in eight replicate wells, negative control = 0.1 % DMSO; positive control = 40 ng/ml T3. The day of OPC plating was considered DIV0. On DIV4, cells were fixed, immunostained for myelin basic protein (MBP) expression, imaged and quantified as described below.

expanded OPCs = test: cells; conditions: for viability at 0.1 µM / viability at 1 µM / viability at 10 µM: Rattus norvegicus, 72 h
Protocol: Having established a consistent assay for measuring OL differentiation in vitro, the next step was to utilize this assay to assess the ability of a wide array of compounds to promote OL differentiation. Prior to library screening, we first established the maximum non-toxic dose of each compound in the library. […] Therefore, we added each compound in the NIH clinical collection (NCC) library to OPCs at 10, 1, and 0.1 µM concentrations. Three days later, we assessed viability of the treated cells by measuring AlamarBlue fluorescence, a measure of cell viability (see “Methods” section). […] Appropriately, we established three sets of screening concentrations for library compounds: non-toxic compounds were tested at 10 and 2 µM, slightly toxic compounds (only toxic at 10 µM) were tested at 2 and 0.4 µM, and very toxic compounds were tested at 0.4 and 0.08 µM.
OPCs were expanded in vitro by seeding into PDL-coated tissue culture flasks at 1000–2000 cells/cm^2 in differentiation media supplemented with 10 ng/ml PDGF-AA. Proliferating OPCs were fed every 2–3 days and supplemented with 2–3× concentration of PDGF as needed to prevent OPC differentiation. After 6–7 days of proliferation, OPCs were harvested by trypsinization, plated into PDL-coated 96-well Falcon plates and centrifuged at 200×g to facilitate cell attachment, survival, and even distribution of cells. Expanded OPCs were seeded in differentiation media at 10,000 cells/well and incubated for 2 h at 37 °C, 10 % CO2 prior to addition of compounds. The NCC library was diluted and added to cells at 10, 1, and 0.1 µM; each concentration was tested in quadruplicate. As a positive control for the induction of toxicity, 5 ng/ml tunicamycin was added to 8 wells in each plate. Three days later, a 1:10 dilution of alamarBlue® (AB) was added to each well and cells were incubated 4 h at 37 °C, 10 % CO2. AB fluorescence was measured using a PerkinElmer Victor II fluorescence microplate reader (PerkinElmer, Waltham, MA) with 560 nm excitation/590 nm emission filters. For library screening, the highest concentration of each compound was adjusted to a minimally toxic concentration based on this toxicity data. Compounds were additionally tested at a second concentration that was 1/5th of the top concentration. The final concentration of DMSO in each well was 0.1 %.

[2] = 2 uM test compound, relative to quetiapine, read-out: OL differentiation, 2 uM (% Quet)
[3] = read-out: 0.1 µM (% DMSO), alamarBlue viability of expanded OPCs, compound at 0.1 µM, sheet All Tox data
[4] = read-out: 1 µM (% DMSO), alamarBlue viability of expanded OPCs, compound at 1 µM, sheet All Tox data
[5] = read-out: 10 µM (% DMSO), alamarBlue viability of expanded OPCs, compound at 10 µM, sheet All Tox data
[6] = test compound at 2 uM, NCC library screen, relative to quetiapine, read-out: 2 uM (% Quet)
[7] = test compound at 10 uM, NCC library screen, relative to quetiapine, read-out: 10 uM (% Quet)
[8] = alamarBlue viability of expanded OPCs, compound at 0.1 µM, relative to DMSO control
[9] = alamarBlue viability of expanded OPCs, compound at 1 µM, relative to DMSO control
[10] = alamarBlue viability of expanded OPCs, compound at 10 µM, relative to DMSO control
[11] = 10 uM test compound, relative to quetiapine, read-out: OL differentiation, 10 uM (% Quet)
[12] = test compound at 2 uM, MBP expression relative to quetiapine, NCC library screen, read-out: 2 uM (% Quet)
[13] = test compound at 10 uM, MBP expression relative to quetiapine, NCC library screen, read-out: 10 uM (% Quet)

Row | Compound | activation at 2 µM [1, 2] [%] | viability at 0.1 µM (expanded OPCs; [3]) [%] | viability at 1 µM (expanded OPCs; [4]) [%] | viability at 10 µM (expanded OPCs; [5]) [%] | 0.1 µM (% DMSO) (expanded OPCs; [8]) | 1 µM (% DMSO) (expanded OPCs; [9]) | 10 µM (% DMSO) (expanded OPCs; [10]) | activation at 2 µM [1, 12] [%] | other results
1 | Nc1ccc2cn[nH]c2c1 [6-Aminoindazole] | – | – | – | – | – | – | – | – | 2 uM (% Quet) ([1]; test compound at 2 uM, NCC library screen, relative to quetiapine): -23.3 % Quet; 10 uM (% Quet) ([1]; test compound at 10 uM, NCC library screen, relative to quetiapine): -40.9 % Quet; 0.1 µM (% DMSO) (expanded OPCs; alamarBlue viability, NCC library compound at 0.1 µM, sheet "All Tox data"): 85.3 % DMSO; 1 µM (% DMSO) (expanded OPCs; alamarBlue viability, NCC library compound at 1 µM, sheet "All Tox data"): 87.5 % DMSO; 10 µM (% DMSO) (expanded OPCs; alamarBlue viability, NCC library compound at 10 µM, sheet "All Tox data"): 73.6 % DMSO
2 | COc1ccccc1N1CCN(CC(O)COc2cccc3ccccc23)CC1 (stereo not shown) [Naftopidil] | -49.3 | 96.2 | 87.5 | 26.4 | – | – | – | – | activation at 0.4 µM ([1]; 0.4 uM test compound, relative to quetiapine, read-out: OL differentiation, 0.4 uM (% Quet)): -7.9%
3 | CC(C)Cc1ccc(C(C)C(=O)O)cc1 (stereo not shown) [Ibuprofen] | – | – | – | – | 91.7 | 90.2 | 89.1 | – | activation at 2 µM [1, 6]: 12%; activation at 10 µM [1, 7]: -9.8%
4 | Nc1ccn([C@@H]2CS[C@H](CO)O2)c(=O)n1 [Lamivudine] | -2.4 | 87.3 | 96 | 113 | 94.3 | 88.1 | 79.4 | 2.9 | activation at 10 µM [1, 11]: -27.9%; activation at 10 µM [1, 13]: -9.8%
5 | CN1[C@@H]2CC[C@H]1C[C@@H](OC(c1ccccc1)c1ccccc1)C2 [Benzatropine] | – | – | – | – | 139.9 | 133.9 | 38.5 | 102 | activation at 0.4 µM ([1]; test compound at 0.4 uM, MBP expression relative to quetiapine, NCC library screen, read-out: 0.4 uM (% Quet)): 123%
6 | Cc1onc(-c2ccccc2)c1-c1ccc(S(N)(=O)=O)cc1 [Valdecoxib] | 8.7 | 109 | 104 | 105 | – | – | – | – | activation at 10 µM [1, 11]: -33.1%
7 | Oc1cc(Cl)ccc1Oc1ccc(Cl)cc1Cl [Triclosan] | – | – | – | – | 100.2 | 117.5 | 9.2 | – | activation at 0.4 µM ([1]; test compound at 0.4 uM, NCC library screen, relative to quetiapine, read-out: 0.4 uM (% Quet)): 8.6%
8 | Cc1cccc(C)c1OCC(C)N (stereo not shown) [Mexiletine] | – | – | – | – | 91.7 | 86.5 | 72.1 | -15.2 | activation at 10 µM [1, 13]: -7.4%
9 | CCN1CCN(c2cc3c(cc2F)c(=O)c(C(=O)O)cn3C2CC2)CC1 [Enrofloxacin] | – | – | – | – | – | – | – | – | activation at 2 µM [1, 6]: -3.6%; activation at 10 µM [1, 7]: 13.5%; viability at 0.1 µM (expanded OPCs; read-out: 0.1 µM (% DMSO), alamarBlue viability, NCC library compound at 0.1 µM, sheet "All Tox data"): 88.5%; viability at 1 µM (expanded OPCs; read-out: 1 µM (% DMSO), alamarBlue viability, NCC library compound at 1 µM, sheet "All Tox data"): 89%; viability at 10 µM (expanded OPCs; read-out: 10 µM (% DMSO), alamarBlue viability, NCC library compound at 10 µM, sheet "All Tox data"): 79.9%
